The source of these data is patent US10787430B2, “Hemoglobin modifier compounds and uses thereof” (FronThera U.S. Pharmaceuticals LLC, priority 2016, dated 2020).

The assay addresses T1, hemoglobin (20% hct blood) (Homo sapiens, UniProt P68871+P69905).
T1 construct: Normal whole blood was collected from adult healthy donors; from tissue; host or cells: normal human whole blood (red blood cells), adult healthy donors
Nature of the assay: Dose-dependent whole blood OEC studies. The class given is cell-based. The conditions noted are these: 37° C., 1 hr; for delta p50 0.2 mM: 0.2 mM compound; for delta p50 0.5 mM: 0.5 mM compound. As to the method: Materials: Normal whole blood was collected from adult healthy donors at the Virginia Commonwealth University after informed consent. The use of these human samples is in accordance with regulations of the IRB for Protection of Human Subjects. Compounds (50 mM-100 mM concentration in DMSO) were stored at 15° C. or room temperature until use.
To 2 ml 20% hct blood, 0.2 or 0.5 or 1 mM compound was added and kept shaking at 37° C. for 1 hr. OEC analysis was performed as described above to determine partial pressure of oxygen (pO2) and Hb oxygen saturation values (sO2). A control without compound but containing equivalent amount of DMSO was performed (1%). GBT440 was used as a positive control. Table 2 below lists the delta p50% values.

T1 sequence (P69905 2-142 limits assumed): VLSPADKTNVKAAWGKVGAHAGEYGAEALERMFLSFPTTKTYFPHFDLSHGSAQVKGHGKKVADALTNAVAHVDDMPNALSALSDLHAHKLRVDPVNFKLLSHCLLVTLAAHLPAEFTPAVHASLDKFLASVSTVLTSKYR
T1 sequence (P68871 2-147 limits assumed): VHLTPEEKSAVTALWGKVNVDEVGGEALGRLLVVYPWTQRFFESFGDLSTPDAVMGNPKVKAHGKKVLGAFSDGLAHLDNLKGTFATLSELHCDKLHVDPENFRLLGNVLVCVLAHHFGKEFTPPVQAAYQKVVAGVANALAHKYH

Consider `CC(C)n1nccc1-c1ncccc1COc1ccc2sncc2c1C=O` [Example 11, 5-((2-(1-isopropyl-1H-pyrazol-5-yl)pyridin-3-yl)methoxy)benzo[d]isothiazole-4-carbaldehyde], for which the “delta p50 0.2 mM” value is listed as −12.80% and the “delta p50 0.5 mM” value is −37.60%.
Turning to `CC(C)n1nccc1-c1ncccc1COc1ccc2ncsc2c1C=O` [Example 12, 6-((2-(1-isopropyl-1H-pyrazol-5-yl)pyridin-3-yl)methoxy)benzo[d]thiazole-7-carbaldehyde], the “delta p50 0.2 mM” value is given as −26.60% and the “delta p50 0.5 mM” value was −58.40%.
Turning to `CC(C)n1nccc1-c1ncccc1COc1ccc2scnc2c1C=O` [Example 16, 5-((2-(1-isopropyl-1H-pyrazol-5-yl)pyridin-3-yl)methoxy)benzo[d]thiazole-4-carbaldehyde], the “delta p50 0.2 mM” value was −8.90% and the “delta p50 0.5 mM” value is −14.70%.
Take `CC(C)n1nccc1-c1ncccc1COc1ccc2snnc2c1C=O` [Example 17, 5-((2-(1-isopropyl-1H-pyrazol-5-yl)pyridin-3-yl)methoxy)benzo[d][1,2,3]thiadiazole-4-carbaldehyde]: the “delta p50 0.2 mM” value is recorded as −12% and the “delta p50 0.5 mM” value is on record as −30%.
The like results for `CC(C)n1nccc1-c1ncccc1COc1ccc2nnsc2c1C=O` [Example 18, 6-((2-(1-isopropyl-1H-pyrazol-5-yl)pyridin-3-yl)methoxy)benzo[d][1,2,3]thiadiazole-7-carbaldehyde] were, in that order, −2.80% and −8.10%.
Take `CC(C)n1nccc1-c1ncccc1COc1ccc2ncncc2c1C=O` [Example 19, 6-((2-(1-isopropyl-1H-pyrazol-5-yl)pyridin-3-yl)methoxy)quinazoline-5-carbaldehyde]: the “delta p50 0.2 mM” value is on record as −8.20% and the “delta p50 0.5 mM” value is −18.10%.
Take `CC(C)n1ncc(F)c1-c1ncccc1COc1ccc2ncoc2c1C=O` [Example 22, 6-((2-(4-fluoro-1-isopropyl-1H-pyrazol-5-yl)pyridin-3-yl)methoxy)benzo[d]oxazole-7-carbaldehyde]: the “delta p50 0.2 mM” value was −12.90% and the “delta p50 0.5 mM” value is given as −35.50%.
With `[2H]C([2H])(Oc1cccc(O)c1C=O)c1cccnc1-c1c(F)cnn1C(C)C` [Example 25, 2-((2-(4-fluoro-1-isopropyl-1H-pyrazol-5-yl)pyridin-3-yl)methoxy-d2)-6-hydroxybenzaldehyde], the “delta p50 0.2 mM” value is listed as −14.30% and the “delta p50 0.5 mM” value is given as −36.10%.
With `[2H]C([2H])(Oc1cc(F)cc(O)c1C=O)c1cccnc1-c1c(F)cnn1C(C)C` [Example 26, 4-fluoro-2-((2-(4-fluoro-1-isopropyl-1H-pyrazol-5-yl)pyridin-3-yl)methoxy-d2)-6-hydroxybenzaldehyde], the “delta p50 0.2 mM” value is −11.10% and the “delta p50 0.5 mM” value is given as −26.10%.
In the same order, the values of `[2H]C([2H])(Oc1ccc2ncoc2c1C=O)c1cccnc1-c1ccnn1C(C)C` [Example 28, 6-((2-(1-isopropyl-1H-pyrazol-5-yl)pyridin-3-yl)methoxy-d2)benzo[d]oxazole-7-carbaldehyde] are −11.90% and −40.70%.
Consider `[2H]C([2H])([2H])C(n1nccc1-c1ncccc1COc1cc(F)cc(O)c1C=O)C([2H])([2H])[2H]` [Example 31, 4-fluoro-2-hydroxy-6-((2-(1-(propan-2-yl-1,1,1,3,3,3-d6)-1H-pyrazol-5-yl)pyridin-3-yl)methoxy)benzaldehyde], for which the “delta p50 0.2 mM” value is given as −9.80% and the “delta p50 0.5 mM” value was −36.10%.
For the compound `[2H]C([2H])([2H])C(n1ncc(F)c1-c1ncccc1COc1cccc(O)c1C=O)C([2H])([2H])[2H]` [Example 32, 2-((2-(4-fluoro-1-(propan-2-yl-1,1,1,3,3,3-d6)-1H-pyrazol-5-yl)pyridin-3-yl)methoxy)-6-hydroxybenzaldehyde], the “delta p50 0.2 mM” value is reported as −12.70% and the “delta p50 0.5 mM” value is on record as −39.20%.
In the same order, the values of `[2H]C([2H])([2H])C(n1nccc1-c1ncccc1COc1ccc2ncoc2c1C=O)C([2H])([2H])[2H]` [Example 33, 6-((2-(1-(propan-2-yl-1,1,1,3,3,3-d6)-1H-pyrazol-5-yl)pyridin-3-yl)methoxy)benzo[d]oxazole-7-carbaldehyde] are −12.70% and −39.70%.
Turning to `[2H]C([2H])([2H])C(n1ncc(F)c1-c1ncncc1COc1cc(F)cc(O)c1C=O)C([2H])([2H])[2H]` [Example 34, 4-fluoro-2-((4-(4-fluoro-1-(propan-2-yl-1,1,1,3,3,3-d6)-1H-pyrazol-5-yl)pyrimidin-5-yl)methoxy)-6-hydroxybenzaldehyde], the “delta p50 0.2 mM” value is −6.50% and the “delta p50 0.5 mM” value is recorded as −10.00%.
For `[2H]C([2H])([2H])C(n1ncc(F)c1-c1ncncc1COc1cccc(O)c1C=O)C([2H])([2H])[2H]` [Example 35, 2-((4-(4-fluoro-1-(propan-2-yl-1,1,1,3,3,3-d6)-1H-pyrazol-5-yl)pyrimidin-5-yl)methoxy)-6-hydroxybenzaldehyde], the “delta p50 0.2 mM” value is reported as −10.30% and the “delta p50 0.5 mM” value is reported as −29.80%.
In the case of `[2H]C([2H])([2H])C(n1nccc1-c1ncncc1COc1cc(F)cc(O)c1C=O)C([2H])([2H])[2H]` [Example 36, 4-fluoro-2-hydroxy-6-((4-(1-(propan-2-yl-1,1,1,3,3,3-d6)-1H-pyrazol-5-yl)pyrimidin-5-yl)methoxy)benzaldehyde], the “delta p50 0.2 mM” value is −9.30% and the “delta p50 0.5 mM” value is reported as −14%.
On to `[2H]C([2H])([2H])C(n1nccc1-c1ncncc1COc1cccc(O)c1C=O)C([2H])([2H])[2H]` [Example 37, 2-hydroxy-6-((4-(1-(propan-2-yl-1,1,1,3,3,3-d6)-1H-pyrazol-5-yl)pyrimidin-5-yl)methoxy)benzaldehyde], for which the “delta p50 0.2 mM” value was −16.20% and the “delta p50 0.5 mM” value is reported as −46.10%.
Regarding `[2H]C([2H])(Oc1cc(F)cc(O)c1C=O)c1cncnc1-c1ccnn1C(C)C` [Example 39, 4-fluoro-2-hydroxy-6-((4-(1-isopropyl-1H-pyrazol-5-yl)pyrimidin-5-yl)methoxy-d2)benzaldehyde], the “delta p50 0.2 mM” value is on record as −12.20% and the “delta p50 0.5 mM” value is on record as −29.30%.
As for `[2H]C([2H])(Oc1ccc(F)c(O)c1C=O)c1cncnc1-c1ccnn1C(C)C` [Example 40, 3-fluoro-2-hydroxy-6-((4-(1-isopropyl-1H-pyrazol-5-yl)pyrimidin-5-yl)methoxy-d2)benzaldehyde], the “delta p50 0.2 mM” value was −6% and the “delta p50 0.5 mM” value was −12%.
Regarding `[2H]C([2H])(Oc1cccc(O)c1C=O)c1cncnc1-c1c(F)cnn1C(C)C` [Example 41, 2-((4-(4-fluoro-1-isopropyl-1H-pyrazol-5-yl)pyrimidin-5-yl)methoxy-d2)-6-hydroxybenzaldehyde], the “delta p50 0.2 mM” value was −14.40% and the “delta p50 0.5 mM” value is listed as −30.20%.
Turning to `[2H]C([2H])(Oc1cccc(O)c1C=O)c1cncnc1-n1ccnc1C(C)C` [Example 42, 2-hydroxy-6-((4-(2-isopropyl-1H-imidazol-1-yl)pyrimidin-5-yl)methoxy-d2)benzaldehyde], the “delta p50 0.2 mM” value is given as −10.20% and the “delta p50 0.5 mM” value is given as −23.10%.
In the case of `[2H]C([2H])(Oc1ccc2ncoc2c1C=O)c1cncnc1-n1ccnc1C(C)C` [Example 43, 6-((4-(2-isopropyl-1H-imidazol-1-yl)pyrimidin-5-yl)methoxy-d2)benzo[d]oxazole-7-carbaldehyde], the “delta p50 0.2 mM” value is given as −9.90% and the “delta p50 0.5 mM” value is −28.10%.
Regarding `[2H]C([2H])(Oc1cc(F)cc(O)c1C=O)c1cncnc1-n1ccnc1C(C)C` [Example 44, 4-fluoro-2-hydroxy-6-((4-(2-isopropyl-1H-imidazol-1-yl)pyrimidin-5-yl)methoxy-d2)benzaldehyde], the “delta p50 0.2 mM” value is reported as −6.90% and the “delta p50 0.5 mM” value is listed as −22.10%.
On to `[2H]C([2H])(Oc1cccc(O)c1C=O)c1cccnc1-n1ccnc1C1CC1` [Example 45, 2-((2-(2-cyclopropyl-1H-imidazol-1-yl)pyridin-3-yl)methoxy-d2)-6-hydroxybenzaldehyde], for which the “delta p50 0.2 mM” value is −10% and the “delta p50 0.5 mM” value was −29.80%.
For `[2H]C([2H])(Oc1cccc(O)c1C=O)c1ncccc1-c1ccnn1C(C)C` [Example 46, 2-hydroxy-6-((3-(1-isopropyl-1H-pyrazol-5-yl)pyridin-2-yl)methoxy-d2)benzaldehyde], the “delta p50 0.2 mM” value is on record as −12.80% and the “delta p50 0.5 mM” value is −37.90%.
The like results for `[2H]C([2H])(Oc1cc(F)cc(O)c1C=O)c1ncccc1-c1ccnn1C(C)C` [Example 47, 4-fluoro-2-hydroxy-6-((3-(1-isopropyl-1H-pyrazol-5-yl)pyridin-2-yl)methoxy-d2)benzaldehyde] were, in that order, −15.30% and −40.80%.
The like results for `[2H]C(C)(C)n1nccc1-c1ncccc1COc1cccc(O)c1C=O` [Example 48, 2-hydroxy-6-((2-(1-(propan-2-yl-2-d)-1H-pyrazol-5-yl)pyridin-3-yl)methoxy)benzaldehyde] were, in that order, −11% and −38.10%.
`[2H]C(C)(C)n1nccc1-c1ncncc1COc1cccc(O)c1C=O` [Example 50, 2-hydroxy-6-((4-(1-(propan-2-yl-2-d)-1H-pyrazol-5-yl)pyrimidin-5-yl)methoxy)benzaldehyde]: the “delta p50 0.2 mM” value is reported as −16.10% and the “delta p50 0.5 mM” value is recorded as −38.4.%.
